In the supplement of paper PMC10331698:
± gives the standard deviation of the averaged measurements.

Experiments:
Assay in all cases: level (log10 ratio to DMSO vehicle control); higher = higher biomarker level / cell amount than vehicle control
Conditions in all cases: in DMSO
[1] = compound: CCN(CCO)S(=O)(=O)C(F)(F)C(F)(F)C(F)(F)C(F)(F)C(F)(F)C(F)(F)C(F)(F)C(F)(F)F [N-Ethyl-N-(2-hydroxyethyl)perfluorooctanesulfonamide]
Description: (§1)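 BioMAP Diversity Plus panel of 12 human primary cell co-culture systems (3C, 4H, LPS, SAg, BT, BF4T, BE3C, CASM3C, HDF3CGF, KF3CT, MyoF, Mphg). Compounds were added 1 h before stimulation and left for 24 h (MyoF 48 h; BT 72 h for soluble read-outs or 6 d for IgG). Biomarkers were read by ELISA, cytotoxicity by SRB, PBMC viability and proliferation by Alamar Blue. Each well value was divided by the mean of 8 DMSO control wells on the same plate and log10 transformed; duplicate blinded samples were tested at 4 concentrations.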

Perfluorodecanoic acid = compound: O=C(O)C(F)(F)C(F)(F)C(F)(F)C(F)(F)C(F)(F)C(F)(F)C(F)(F)C(F)(F)C(F)(F)F [Perfluorodecanoic acid]
Description: as §1

[2] = compound: NCC(F)(F)C(F)(F)C(F)(F)C(F)(F)C(F)(F)C(F)(F)C(F)(F)F [1H,1H-Perfluorooctylamine]
Description: as §1

[3] = compound: O=C(O)C(F)(F)C(F)(F)C(F)(F)C(F)(F)C(F)(F)C(F)(F)C(F)(F)C(F)F [9-H-Perfluorononanoic acid]
Description: as §1

Perfluoro-1-iodohexane = compound: FC(F)(F)C(F)(F)C(F)(F)C(F)(F)C(F)(F)C(F)(F)I [Perfluoro-1-iodohexane]
Description: as §1

Pentafluoropropionamide = compound: NC(=O)C(F)(F)C(F)(F)F [Pentafluoropropionamide]
Description: as §1

[4] = compound: O=C(O)C(F)(F)OC(F)(F)C(F)(F)OC(F)(F)F [Perfluoro-3,6-dioxaheptanoic acid]
Description: as §1

Test System: BE3C:PAI-I
- level (log10) ([1]; 6700 nM): -0.066 ± 0.0071
- level (log10) ([1]; 20000 nM): -0.092 ± 0.017
- level (log10) (Perfluorodecanoic acid; 6700 nM): -0.0475 ± 0.013
- level (log10) (Perfluorodecanoic acid; 20000 nM): -0.4 ± 0.047
- level (log10) ([2]; 6700 nM): -0.0075 ± 0.028
- level (log10) ([2]; 20000 nM): -0.008 ± 0.014
- level (log10) ([2]; 60000 nM): -0.002 ± 0.04
- level (log10) ([3]; 6700 nM): 0.0195 ± 0.04
- level (log10) ([3]; 20000 nM): 0.0405 ± 0.023
- level (log10) ([3]; 60000 nM): -0.0295 ± 0.0021
- level (log10) (Perfluoro-1-iodohexane; 6700 nM): -0.0245 ± 0.04
- level (log10) (Perfluoro-1-iodohexane; 20000 nM): -0.0045 ± 0.025
- level (log10) (Perfluoro-1-iodohexane; 60000 nM): 0.006 ± 0.037
- level (log10) (Pentafluoropropionamide; 6700 nM): 0.002 ± 0.0057
- level (log10) (Pentafluoropropionamide; 20000 nM): -0.009 ± 0.03
- level (log10) (Pentafluoropropionamide; 60000 nM): -0.016 ± 0.0028
- level (log10) ([4]; 6700 nM): -0.037 ± 0.055
- level (log10) ([4]; 20000 nM): 0.0125 ± 0.053
- level (log10) ([4]; 60000 nM): 0.0055 ± 0.018

Test System: lMphg:M-CSF
- level (log10) ([1]; 6700 nM): -0.001 ± 0.0057
- level (log10) ([1]; 20000 nM): 0.0105 ± 0.0035
- level (log10) (Perfluorodecanoic acid; 6700 nM): 0.019 ± 0.021
- level (log10) (Perfluorodecanoic acid; 20000 nM): 0.0105 ± 0.037
- level (log10) ([2]; 6700 nM): -0.024 ± 0.033
- level (log10) ([2]; 20000 nM): -0.0185 ± 0.005
- level (log10) ([2]; 60000 nM): -0.0245 ± 0.0021
- level (log10) ([3]; 6700 nM): -0.008 ± 0.028
- level (log10) ([3]; 20000 nM): -0.0035 ± 0.018
- level (log10) ([3]; 60000 nM): -0.0045 ± 0.013
- level (log10) (Perfluoro-1-iodohexane; 6700 nM): -0.0095 ± 0.0035
- level (log10) (Perfluoro-1-iodohexane; 20000 nM): -0.032 ± 0.016
- level (log10) (Perfluoro-1-iodohexane; 60000 nM): 0.0085 ± 0.026
- level (log10) (Pentafluoropropionamide; 6700 nM): -0.0185 ± 0.0035
- level (log10) (Pentafluoropropionamide; 20000 nM): -0.0285 ± 0.0021
- level (log10) (Pentafluoropropionamide; 60000 nM): 0.002 ± 0.028
- level (log10) ([4]; 6700 nM): -0.011 ± 0.016
- level (log10) ([4]; 20000 nM): 0.003 ± 0.013
- level (log10) ([4]; 60000 nM): -0.0345 ± 0.029

Test System: MyoF:alpha-SM Actin
- level (log10) ([1]; 6700 nM): 0.0845 ± 0.023
- level (log10) ([1]; 20000 nM): -0.235 ± 0.057
- level (log10) (Perfluorodecanoic acid; 6700 nM): 0.031 ± 0.027
- level (log10) (Perfluorodecanoic acid; 20000 nM): -0.04 ± 0.016
- level (log10) ([2]; 6700 nM): -0.017 ± 0.075
- level (log10) ([2]; 20000 nM): 0.0285 ± 0.0078
- level (log10) ([2]; 60000 nM): 0.042
- level (log10) ([3]; 6700 nM): -0.0215 ± 0.019
- level (log10) ([3]; 20000 nM): -0.0245 ± 0.013
- level (log10) ([3]; 60000 nM): -0.049 ± 0.014
- level (log10) (Perfluoro-1-iodohexane; 6700 nM): -0.073 ± 0.021
- level (log10) (Perfluoro-1-iodohexane; 20000 nM): -0.173 ± 0.086
- level (log10) (Perfluoro-1-iodohexane; 60000 nM): -0.38 ± 0.0092
- level (log10) (Pentafluoropropionamide; 6700 nM): -0.007 ± 0.02
- level (log10) (Pentafluoropropionamide; 20000 nM): -0.0135 ± 0.019
- level (log10) (Pentafluoropropionamide; 60000 nM): -0.0195 ± 0.018
- level (log10) ([4]; 6700 nM): -0.013 ± 0.0071
- level (log10) ([4]; 20000 nM): -0.027 ± 0.034
- level (log10) ([4]; 60000 nM): -0.0095 ± 0.018

Test System: CASM3C:CD87/uPAR
- level (log10) ([1]; 6700 nM): -0.0595 ± 0.0092
- level (log10) ([1]; 20000 nM): -0.09 ± 0.038
- level (log10) (Perfluorodecanoic acid; 6700 nM): -0.0055 ± 0.005
- level (log10) (Perfluorodecanoic acid; 20000 nM): 0.016 ± 0.011
- level (log10) ([2]; 6700 nM): -0.044 ± 0.083
- level (log10) ([2]; 20000 nM): -0.0315 ± 0.043
- level (log10) ([2]; 60000 nM): 0.025 ± 0.047
- level (log10) ([3]; 6700 nM): -0.001 ± 0.014
- level (log10) ([3]; 20000 nM): 0.0045 ± 0.011
- level (log10) ([3]; 60000 nM): 0.029 ± 0.0057
- level (log10) (Perfluoro-1-iodohexane; 6700 nM): 0 ± 0.0085
- level (log10) (Perfluoro-1-iodohexane; 20000 nM): -0.0105 ± 0.03
- level (log10) (Perfluoro-1-iodohexane; 60000 nM): 0.003 ± 0.021
- level (log10) (Pentafluoropropionamide; 6700 nM): -0.031 ± 0.05
- level (log10) (Pentafluoropropionamide; 20000 nM): -0.012 ± 0.0071
- level (log10) (Pentafluoropropionamide; 60000 nM): -0.019 ± 0.03
- level (log10) ([4]; 6700 nM): -0.0105 ± 0.043
- level (log10) ([4]; 20000 nM): 0.022 ± 0.013
- level (log10) ([4]; 60000 nM): -0.006 ± 0.018

Test System: BE3C:MMP-9
- level (log10) ([1]; 6700 nM): 0.018 ± 0.0071
- level (log10) ([1]; 20000 nM): -0.0535 ± 0.04
- level (log10) (Perfluorodecanoic acid; 6700 nM): 0.008 ± 0.014
- level (log10) (Perfluorodecanoic acid; 20000 nM): -0.458 ± 0.0028
- level (log10) ([2]; 6700 nM): 0.001 ± 0.023
- level (log10) ([2]; 20000 nM): -0.0105 ± 0.032
- level (log10) ([2]; 60000 nM): 0.005 ± 0.048
- level (log10) ([3]; 6700 nM): 0.015 ± 0.02
- level (log10) ([3]; 20000 nM): 0.0415 ± 0.00071
- level (log10) ([3]; 60000 nM): 0.0255 ± 0.0021
- level (log10) (Perfluoro-1-iodohexane; 6700 nM): 0.0075 ± 0.0092
- level (log10) (Perfluoro-1-iodohexane; 20000 nM): 0.013 ± 0.0028
- level (log10) (Perfluoro-1-iodohexane; 60000 nM): 0.001 ± 0.023
- level (log10) (Pentafluoropropionamide; 6700 nM): -0.002 ± 0.011
- level (log10) (Pentafluoropropionamide; 20000 nM): -0.02 ± 0.031
- level (log10) (Pentafluoropropionamide; 60000 nM): 0.004 ± 0.017
- level (log10) ([4]; 6700 nM): -0.0395 ± 0.005
- level (log10) ([4]; 20000 nM): -0.026 ± 0.0042
- level (log10) ([4]; 60000 nM): -0.019 ± 0.047

Test System: MyoF:Collagen IV
- level (log10) ([1]; 6700 nM): -0.0665 ± 0.013
- level (log10) ([1]; 20000 nM): 0.078 ± 0.035
- level (log10) (Perfluorodecanoic acid; 6700 nM): 0.334 ± 0.037
- level (log10) (Perfluorodecanoic acid; 20000 nM): 0.38 ± 0.086
- level (log10) ([2]; 6700 nM): -0.0035 ± 0.018
- level (log10) ([2]; 20000 nM): -0.009 ± 0.016
- level (log10) ([2]; 60000 nM): -0.0055 ± 0.0035
- level (log10) ([3]; 6700 nM): 0.039 ± 0.037
- level (log10) ([3]; 20000 nM): 0.0365 ± 0.018
- level (log10) ([3]; 60000 nM): 0.082 ± 0.03
- level (log10) (Perfluoro-1-iodohexane; 6700 nM): -0.033 ± 0.027
- level (log10) (Perfluoro-1-iodohexane; 20000 nM): -0.031 ± 0.028
- level (log10) (Perfluoro-1-iodohexane; 60000 nM): 0.193 ± 0.013
- level (log10) (Pentafluoropropionamide; 6700 nM): -0.0295 ± 0.03
- level (log10) (Pentafluoropropionamide; 20000 nM): -0.0275 ± 0.025
- level (log10) (Pentafluoropropionamide; 60000 nM): -0.007 ± 0.051
- level (log10) ([4]; 6700 nM): -0.011 ± 0.0085
- level (log10) ([4]; 20000 nM): 0.0045 ± 0.013
- level (log10) ([4]; 60000 nM): 0.0015 ± 0.021

Test System: MyoF:bFGF
- level (log10) ([1]; 6700 nM): -0.01 ± 0.016
- level (log10) ([1]; 20000 nM): -0.025 ± 0.0042
- level (log10) (Perfluorodecanoic acid; 6700 nM): 0.001 ± 0.0042
- level (log10) (Perfluorodecanoic acid; 20000 nM): 0.0055 ± 0.0035
- level (log10) ([2]; 6700 nM): 0.0095 ± 0.028
- level (log10) ([2]; 20000 nM): 0 ± 0.014
- level (log10) ([2]; 60000 nM): 0.019 ± 0.0099
- level (log10) ([3]; 6700 nM): -0.0025 ± 0.021
- level (log10) ([3]; 20000 nM): 0.0015 ± 0.012
- level (log10) ([3]; 60000 nM): -0.0055 ± 0.018
- level (log10) (Perfluoro-1-iodohexane; 6700 nM): -0.0085 ± 0.0064
- level (log10) (Perfluoro-1-iodohexane; 20000 nM): -0.002 ± 0.0042
- level (log10) (Perfluoro-1-iodohexane; 60000 nM): 0.0235 ± 0.036
- level (log10) (Pentafluoropropionamide; 6700 nM): -0.002 ± 0.0042
- level (log10) (Pentafluoropropionamide; 20000 nM): 0.0105 ± 0.012
- level (log10) (Pentafluoropropionamide; 60000 nM): -0.0005 ± 0.029
- level (log10) ([4]; 6700 nM): -0.021 ± 0.023
- level (log10) ([4]; 20000 nM): 0.0045 ± 0.023
- level (log10) ([4]; 60000 nM): -0.0095 ± 0.021
